These are literature values, as cited in publication PMC3935482 (Clinical cancer research : an official journal of the …, 2013).

Where [1] appears, read: oral rapamycin and IV temsirolimus.

SMILES strings stand for the structures. Read-outs that look alike come from different tables or passages of the source.

Regarding `CO[C@H]1C[C@@H]2CC[C@@H](C)[C@@](O)(O2)C(=O)C(=O)N2CCCC[C@H]2C(=O)O[C@H]([C@H](C)C[C@@H]2CC[C@@H](OC(=O)C(C)(CO)CO)[C@H](OC)C2)CC(=O)[C@H](C)/C=C(\C)[C@@H](O)[C@@H](OC)C(=O)[C@H](C)C[C@H](C)/C=C/C=C/C=C/1C` [temsirolimus], in the series with patients (patients receiving temsirolimus), the “Patients with dermatologic toxicities such as rash” value is given as “up to 50%”. Also, the “Grade 3 or 4 depression” value in the series with patients (phase 2 study, 250 mg dose level) is 10%. Also, the Half-life under setting [1] is 61 to 69 h.
With `CO[C@H]1C[C@@H]2CC[C@@H](C)[C@@](O)(O2)C(=O)C(=O)N2CCCC[C@H]2C(=O)O[C@H]([C@H](C)C[C@@H]2CC[C@@H](OP(C)(C)=O)[C@H](OC)C2)CC(=O)[C@H](C)/C=C(\C)[C@@H](O)[C@@H](OC)C(=O)[C@H](C)C[C@H](C)/C=C/C=C/C=C/1C` [deferolimus], the Half-life (given by weekly IV infusion) is 45 to 52 h.
In the case of `CO[C@H]1C[C@@H]2CC[C@@H](C)[C@@](O)(O2)C(=O)C(=O)N2CCCC[C@H]2C(=O)O[C@H]([C@H](C)C[C@@H]2CC[C@@H](O)[C@H](OC)C2)CC(=O)[C@H](C)/C=C(\C)[C@@H](O)[C@@H](OC)C(=O)[C@H](C)C[C@H](C)/C=C/C=C/C=C/1C` [rapamycin], the Cmax of rapamycin is on record as 15.5 ng/mL (5 mg oral rapamycin), 37.9 ng/mL (9 mg oral rapamycin) and 57.72 ng/mL (60 mg oral rapamycin). Further, under setting [1], the Half-life is 61 to 69 h.
